Data from patent US10214507B2, “Carbazole-containing amides, carbamates, and ureas as cryptochrome modulators” (Reset Therapeutics, Inc., priority 2014, dated 2019).
Where two headings read alike, the source gives them in different places.

Key:
[1] = target: FAD-binding domain of human CRY1 protein (hCRY1) (Homo sapiens (Human), UniProt Q16526); experiment: Thermal shift binding assay (differential scanning fluorimetry); details: purified hCRY1 FADBD, Sypro-Orange
Method: Binding of compounds to the isolated FAD-binding domain of human CRY1 protein (hCRY1) was determined using a differential scanning fluorimetry (‘thermal shift’) assay (Pantoliano et al. (2001) J Biomol Screening 6, 429; Niesen et al. (2007) Nature Protocols 2, 2212). The FAD-binding domain of hCRY1 (amino acid residues 1-494) with a C-terminal Myc-DDK tag (FADBD), was produced by transient transfection of HEK293T cells (Catalog # CRL-3216, American Type Culture Collection) and purified by anti-FLAG affinity chromatography (Catalog # A2220, Sigma-Aldrich). FADBD (0.5 μg per well) was incubated with dilutions of compounds in DMSO (5% DMSO final concentration in reaction) in 17.5 μl Tris-buffered saline (TBS) for 10 minutes on ice, then 2.5 μl of 8× Sypro-Orange Dye (Life Technologies) was added to each well. Triplicate wells were assayed for each compound concentration. The melting temperatures were measured in an ABI7500 quantitative PCR instrument using the melt curve mode with a thermal profile of 2 minutes at 25° C., followed by a ramp rate of 1° C./minute up to 99° C. The melting temperature for each well was determined from the first derivative of the melt curve. The change in melting temperature (ΔTm) was obtained by subtraction of the melting temperature of the FADBD in 5% DMSO alone.

[2] = test system: Dbp mRNA in whole blood of db/db mice; experiment: Dbp mRNA in whole blood of db/db mice after three daily doses; type: in vivo, mouse; details: 100 mg/kg PO once daily 3 days, ZT7.5
Method: For whole blood RNA studies, male db/db mice (9 weeks of age, The Jackson Laboratory, Bar Harbor, Me.) were used for the experiment with n=8 mice for each experimental group. […] On the final day at ZT7.5 (2:30 pm), animals were euthanized using CO2 asphyxiation, and the blood collected from the heart via cardiac puncture. The blood was placed in RNALater solution to 1.5 ml total volume. Total RNA was prepared using an Ambion Mouse RiboPure Blood RNA Isolation Kit AM1951 as follows. Samples were centrifuged for 3 minutes, discarding the supernatant. Two ml of lysis solution was added and vortexed, transferred to a 15 ml tube followed by the addition of […]. Lysis buffer was added to a total volume of 3.8 ml and vortexed. The sample mixture was extracted with 1.5 ml Acid Phenol: Chloroform and the aqueous phase was recovered. After adding 0.5 volumes of 100% ethanol and vortexing, the samples were passed through a filter column provided in the kit and washed with 750 microliters of wash buffer 1. The filter was washed with 2 passes of 750 microliters wash buffer ⅔ and dried. RNA was eluted in 200 microliters of molecular biology grade water (RNase-free).
The levels of core clock gene mRNAs in whole blood may provide a non-invasive method of determining effects of compounds in treated subjects. […]

[3] = test system: db/db mouse model of type II diabetes; experiment: Single dose at peak or nadir of clock gene expression, OGTT in db/db mice; type: in vivo
Description: Mice were split into two study arms, to be dosed at either the peak or nadir of Cry1 and Bmal1 gene expression. […] Mice dosed at ZT10 were fasted beginning at 8:30 am in the same manner.
(§1) Significance was accepted when p<0.05.

[4] = Pharmacokinetic analysis in ICR mice (plasma and liver, LC/MS/MS); type: in vivo, mouse; details: 50 mg/kg P.O.; for Cmax / Tmax / half-life / MRT last: male, ICR, po; for Cmax: 50 mg/kg; for half-life: read-out: Elimination T1/2 (converted); for MRT last: read-out: MRT (0-last, hr)
Method: Male ICR mice (weighing 30-40 g, Charles River Laboratories) were used for the experiment with n=3 mice for each experimental group (27 mice total for the study). […] Blood and liver tissue were collected at the following time points after administration: 15, 30, 60, 90 minutes, 3, 6, 12 and 24 hours. A control group of animals (TO) was also sampled. Animals were euthanized with CO2 and the blood collected from the heart using cardiac puncture, transferred to an EDTA tube, and then centrifuged at 5400 rpm for 5 minutes at 4° C. The resultant plasma was frozen using dry ice and then stored at −80° C. until ready for assay. Liver tissue was removed from each animal, 0.5 g was collected in an eppendorff, frozen and submitted for pharmacokinetic measurement. […] Raw data was analyzed using WinNonLin for PK parameters (Cmax, Tmax, elimination t^1/2, MRT (mean residence time), AUC (area under the curve)−(0-last and % extrapolated).

C57/Bl6J DIO mice = experiment: Increasing dosages of Compound 72 for 7 days in diet-induced obesity mouse model; type: in vivo
Description: Male C57/Bl6J DIO mice were obtained from The Jackson Laboratory (Sacramento, Calif.). […] Animals were accustomed to these conditions for at least 2 weeks before experimentation and used at approximately 24 weeks of age.
as §1
Male C57/Bl6J DIO mice were obtained from The Jackson Laboratory (Sacramento, Calif.). […] Animals were accustomed to these conditions for at least 2 weeks before experimentation and used at approximately 26 weeks of age.

FAD-binding domain of human CRY1 protein (hCRY1), sequence (Q16526 1-494): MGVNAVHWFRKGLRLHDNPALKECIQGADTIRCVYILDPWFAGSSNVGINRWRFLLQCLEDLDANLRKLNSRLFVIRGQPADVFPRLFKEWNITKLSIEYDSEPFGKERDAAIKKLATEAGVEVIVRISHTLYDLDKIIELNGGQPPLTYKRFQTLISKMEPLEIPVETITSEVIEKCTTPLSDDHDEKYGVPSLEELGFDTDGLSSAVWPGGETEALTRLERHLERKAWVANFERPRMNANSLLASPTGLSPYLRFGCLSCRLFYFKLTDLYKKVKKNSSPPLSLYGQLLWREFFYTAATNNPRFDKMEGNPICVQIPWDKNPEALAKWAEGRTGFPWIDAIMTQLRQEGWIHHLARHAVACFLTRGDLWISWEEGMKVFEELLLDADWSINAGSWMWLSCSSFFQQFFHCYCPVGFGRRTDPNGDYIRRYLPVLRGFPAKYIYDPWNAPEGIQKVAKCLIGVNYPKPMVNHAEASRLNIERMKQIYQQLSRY

Structure (SMILES): O=C1NCCN1CC(O)Cn1c2ccc(F)cc2c2cc(F)ccc21 (stereo not shown) [Compound 72, 1-(3-(3,6-difluoro-9H-carbazol-9-yl)-2-hydroxypropyl)imidazolidin-2-one]
- change in melting temperature (ΔTm) [1]: dose-dependent increase
- Dbp gene expression in whole blood [2]: statistically significant suppression
- effect on OGTT measurement, dosed at peak of Cry1 and Bmal1 expression ([3]; single dose 50 mg/kg PO at ZT0): apparent effect
- effect on OGTT measurement, dosed at nadir ([3]; single dose 50 mg/kg PO at ZT10): no effect
- glucose AUC calculated from the OGTT ([3]; single dose 50 mg/kg PO at peak (ZT0), mean+/-S.E.M.): 63842+/−4318
- reduction in glucose excursion (AUC) ([3]; single dose 50 mg/kg PO at peak (ZT0), vs vehicle): 14%
- Cmax ([4]; mouse, liver, mouse liver, read-out: Cmax): 7890 ng/mL
- Cmax ([4]; mouse, liver, mouse, unbound, read-out: Cmax UB (liver)): 288 ng/mL
- Cmax ([4]; mouse, plasma, mouse plasma, read-out: Cmax): 1150 ng/mL
- Cmax ([4]; mouse, plasma, mouse, read-out: Cmax (plasma)): 1150 ng/mL
- Cmax ([4]; mouse, plasma, mouse, unbound, read-out: Cmax UB (plasma)): 41.9 ng/mL
- Tmax ([4]; mouse liver): 0.25 to 0.5 h
- half-life ([4]; mouse liver): 3.4 h
- MRT last ([4]; mouse liver): 4.74 h
- Tmax ([4]; mouse plasma): 0.25 to 0.5 h
- half-life ([4]; mouse plasma): 3.13 h
- MRT last ([4]; mouse plasma): 5.3 h
- % AUC extrapolated ([4]; mouse liver): 0.85%
- AUC (total; ng · hr/mL) ([4]; mouse liver): 17961 ng·h/mL
- % AUC extrapolated ([4]; mouse plasma): 1.74%
- AUC (total; ng · hr/mL) ([4]; mouse plasma): 4236 ng·h/mL
- Cmax (liver) ([4]; mouse): 7890 ng/mL
- Total Liver AUC (0-last) ([4]; mouse): 17822
- Unbound Liver AUC (0-last) ([4]; mouse): 650.5
- Unbound Plasma AUC (0-last) ([4]; mouse): 151.5
- fasting blood glucose (C57/Bl6J DIO mice; 10 mg/kg QD PO 7 days): 206.8 ± 8.36 mg/dL
- glucose AUC from OGTT (C57/Bl6J DIO mice; 10 mg/kg QD PO 7 days): 22563+/−1224 units
- fasting blood glucose (C57/Bl6J DIO mice; 30 mg/kg QD PO 7 days): 197.5 ± 12.06 mg/dL
- glucose AUC from OGTT (C57/Bl6J DIO mice; 30 mg/kg QD PO 7 days): 19033+/−1934 units
- fasting blood glucose (C57/Bl6J DIO mice; 100 mg/kg QD PO 7 days): 176.3 ± 7.83 mg/dL
- glucose AUC from OGTT (C57/Bl6J DIO mice; 100 mg/kg QD PO 7 days): 19502+/−2404 units
